Laboratory results as given in the NIST ThermoML archive (doi:10.1016/j.fluid.2016.02.031).
Numbers after ± are expanded uncertainties.

Assay: xn = mol fraction of the nth substance listed
Conditions: 100 kPa, Liquid; for viscosity: Concentric cylinders viscometry; for mass density: Vibrating tube method

c1ccncc1 [pyridine] + CCC(C)=O
Conditions	mass density [kg/m3]	viscosity [mPa·s]
288.15 K, x1 = 0.1006	827.262 ± 0.2	0.4555 ± 0.0067
288.15 K, x1 = 0.2019	844.704 ± 0.2	0.4928 ± 0.0071
288.15 K, x1 = 0.3002	861.833 ± 0.2	0.5309 ± 0.0074
288.15 K, x1 = 0.4004	879.307 ± 0.2	0.5771 ± 0.0079
288.15 K, x1 = 0.4999	896.875 ± 0.19	0.629 ± 0.0084
288.15 K, x1 = 0.597	914.2 ± 0.19	0.6859 ± 0.009
288.15 K, x1 = 0.6998	932.635 ± 0.19	0.7603 ± 0.0097
288.15 K, x1 = 0.7945	949.796 ± 0.19	0.8375 ± 0.01
288.15 K, x1 = 0.8962	968.632 ± 0.18	0.9269 ± 0.011
288.15 K, x1 = 1	988.077 ± 0.18	1.053 ± 0.013
293.15 K, x1 = 0.1006	822.086 ± 0.2	0.4381 ± 0.0066
293.15 K, x1 = 0.2019	839.557 ± 0.2	0.4718 ± 0.0069
293.15 K, x1 = 0.3002	856.714 ± 0.2	0.5088 ± 0.0072
293.15 K, x1 = 0.4004	874.211 ± 0.2	0.5501 ± 0.0076
293.15 K, x1 = 0.4999	891.802 ± 0.19	0.5983 ± 0.0081
293.15 K, x1 = 0.597	909.146 ± 0.19	0.6505 ± 0.0086
293.15 K, x1 = 0.6998	927.59 ± 0.19	0.7177 ± 0.0093
293.15 K, x1 = 0.7945	944.768 ± 0.19	0.7876 ± 0.01
293.15 K, x1 = 0.8962	963.61 ± 0.18	0.8683 ± 0.011
293.15 K, x1 = 1	983.053 ± 0.18	0.9801 ± 0.012
298.15 K, x1 = 0.1006	816.889 ± 0.21	0.4203 ± 0.0064
298.15 K, x1 = 0.2019	834.388 ± 0.2	0.4516 ± 0.0067
298.15 K, x1 = 0.3002	851.571 ± 0.2	0.4867 ± 0.007
298.15 K, x1 = 0.4004	869.094 ± 0.2	0.5243 ± 0.0074
298.15 K, x1 = 0.4999	886.708 ± 0.2	0.5689 ± 0.0078
298.15 K, x1 = 0.597	904.074 ± 0.19	0.6164 ± 0.0083
298.15 K, x1 = 0.6998	922.541 ± 0.19	0.6779 ± 0.0089
298.15 K, x1 = 0.7945	939.726 ± 0.19	0.7418 ± 0.0095
298.15 K, x1 = 0.8962	958.58 ± 0.19	0.8147 ± 0.01
298.15 K, x1 = 1	978.02 ± 0.18	0.9155 ± 0.011
303.15 K, x1 = 0.1006	811.664 ± 0.21	0.4019 ± 0.0062
303.15 K, x1 = 0.2019	829.195 ± 0.2	0.4317 ± 0.0065
303.15 K, x1 = 0.3002	846.407 ± 0.2	0.4649 ± 0.0068
303.15 K, x1 = 0.4004	863.96 ± 0.2	0.5 ± 0.0072
303.15 K, x1 = 0.4999	881.597 ± 0.2	0.5409 ± 0.0075
303.15 K, x1 = 0.597	898.986 ± 0.19	0.5851 ± 0.008
303.15 K, x1 = 0.6998	917.474 ± 0.19	0.6402 ± 0.0085
303.15 K, x1 = 0.7945	934.676 ± 0.19	0.6995 ± 0.0091
303.15 K, x1 = 0.8962	953.536 ± 0.19	0.7669 ± 0.0097
303.15 K, x1 = 1	972.979 ± 0.18	0.8568 ± 0.011
308.15 K, x1 = 0.1006	806.406 ± 0.21	0.3835 ± 0.0061
308.15 K, x1 = 0.2019	823.972 ± 0.2	0.4117 ± 0.0063
308.15 K, x1 = 0.3002	841.216 ± 0.2	0.4432 ± 0.0066
308.15 K, x1 = 0.4004	858.797 ± 0.2	0.4758 ± 0.0069
308.15 K, x1 = 0.4999	876.465 ± 0.2	0.5142 ± 0.0073
308.15 K, x1 = 0.597	893.873 ± 0.19	0.555 ± 0.0077
308.15 K, x1 = 0.6998	912.381 ± 0.19	0.6063 ± 0.0082
308.15 K, x1 = 0.7945	929.606 ± 0.19	0.6588 ± 0.0087
308.15 K, x1 = 0.8962	948.477 ± 0.19	0.7219 ± 0.0093
308.15 K, x1 = 1	967.923 ± 0.18	0.8032 ± 0.01
313.15 K, x1 = 0.1006	801.119 ± 0.21	0.3653 ± 0.0059
313.15 K, x1 = 0.2019	818.72 ± 0.21	0.392 ± 0.0062
313.15 K, x1 = 0.3002	835.996 ± 0.2	0.4219 ± 0.0064
313.15 K, x1 = 0.4004	853.612 ± 0.2	0.4528 ± 0.0067
313.15 K, x1 = 0.4999	871.309 ± 0.2	0.4887 ± 0.007
313.15 K, x1 = 0.597	888.742 ± 0.2	0.5265 ± 0.0074
313.15 K, x1 = 0.6998	907.282 ± 0.19	0.5741 ± 0.0078
313.15 K, x1 = 0.7945	924.517 ± 0.19	0.6226 ± 0.0083
313.15 K, x1 = 0.8962	943.403 ± 0.19	0.6809 ± 0.0089
313.15 K, x1 = 1	962.857 ± 0.18	0.7546 ± 0.0096
318.15 K, x1 = 0.1006	795.798 ± 0.21	0.3502 ± 0.0058
318.15 K, x1 = 0.2019	813.436 ± 0.21	0.3728 ± 0.006
318.15 K, x1 = 0.3002	830.749 ± 0.2	0.401 ± 0.0062
318.15 K, x1 = 0.4004	848.397 ± 0.2	0.4308 ± 0.0065
318.15 K, x1 = 0.4999	866.128 ± 0.2	0.4642 ± 0.0068
318.15 K, x1 = 0.597	883.587 ± 0.2	0.4996 ± 0.0071
318.15 K, x1 = 0.6998	902.151 ± 0.19	0.544 ± 0.0076
318.15 K, x1 = 0.7945	919.408 ± 0.19	0.5893 ± 0.008
318.15 K, x1 = 0.8962	938.312 ± 0.19	0.6417 ± 0.0085
318.15 K, x1 = 1	957.777 ± 0.18	0.7103 ± 0.0092
323.15 K, x1 = 0.1006	790.436 ± 0.21	0.3328 ± 0.0056
323.15 K, x1 = 0.2019	808.12 ± 0.21	0.3539 ± 0.0058
323.15 K, x1 = 0.3002	825.467 ± 0.2	0.3807 ± 0.0061
323.15 K, x1 = 0.4004	843.151 ± 0.2	0.4095 ± 0.0063
323.15 K, x1 = 0.4999	860.918 ± 0.2	0.4409 ± 0.0066
323.15 K, x1 = 0.597	878.406 ± 0.2	0.4742 ± 0.0069
323.15 K, x1 = 0.6998	896.999 ± 0.19	0.5159 ± 0.0073
323.15 K, x1 = 0.7945	914.28 ± 0.19	0.5586 ± 0.0077
323.15 K, x1 = 0.8962	933.202 ± 0.19	0.6072 ± 0.0082
323.15 K, x1 = 1	952.682 ± 0.18	0.6698 ± 0.0088
328.15 K, x1 = 0.1006	785.039 ± 0.21	0.3157 ± 0.0055
328.15 K, x1 = 0.2019	802.762 ± 0.21	0.3354 ± 0.0057
328.15 K, x1 = 0.3002	820.152 ± 0.21	0.361 ± 0.0059
328.15 K, x1 = 0.4004	837.875 ± 0.2	0.3888 ± 0.0061
328.15 K, x1 = 0.4999	855.68 ± 0.2	0.4185 ± 0.0064
328.15 K, x1 = 0.597	873.198 ± 0.2	0.4502 ± 0.0067
328.15 K, x1 = 0.6998	891.821 ± 0.2	0.4899 ± 0.007
328.15 K, x1 = 0.7945	909.127 ± 0.19	0.5297 ± 0.0074
328.15 K, x1 = 0.8962	928.07 ± 0.19	0.5771 ± 0.0079
328.15 K, x1 = 1	947.564 ± 0.18	0.6329 ± 0.0084
333.15 K, x1 = 0.1006	779.596 ± 0.21	0.2989 ± 0.0054
333.15 K, x1 = 0.2019	797.367 ± 0.21	0.3189 ± 0.0055
333.15 K, x1 = 0.3002	814.798 ± 0.21	0.3422 ± 0.0057
333.15 K, x1 = 0.4004	832.563 ± 0.2	0.3696 ± 0.006
333.15 K, x1 = 0.4999	850.405 ± 0.2	0.3985 ± 0.0062
333.15 K, x1 = 0.597	867.959 ± 0.2	0.4291 ± 0.0065
333.15 K, x1 = 0.6998	886.618 ± 0.2	0.4668 ± 0.0068
333.15 K, x1 = 0.7945	903.947 ± 0.19	0.5039 ± 0.0072
333.15 K, x1 = 0.8962	922.92 ± 0.19	0.549 ± 0.0076
333.15 K, x1 = 1	942.433 ± 0.18	0.5997 ± 0.0081
